Assay results: patent US12077503B2, “Substituted cyclic amides and their use as herbicides” (FMC CORPORATION, priority 2015, dated 2024)

Columns and labels:
Type in all cases: in vivo
[1] = test system: sedge, umbrella (small-flower umbrella sedge, Cyperus difformis); experiment: Test B flooded paddy test; details: Flood, 250 g ai/ha; 0 to 100 scale where 0 is no effect and 100 is complete control; 13 to 15 d
Procedure, shortened: (§1)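 Flooding to 3 cm over soil accompanied treatment, which consisted of adding compound to the standing water around 2-leaf plants; depth was then maintained. Visual assessment versus controls followed at 13 to 15 d (scale 0–100, 0 meaning no effect).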

rice (Oryra sativa) = experiment: Test B flooded paddy test; details: Flood, 250 g ai/ha; 0 to 100 scale where 0 is no effect and 100 is complete control; 13 to 15 d
Procedure, shortened: as §1

[2] = test system: ducksalad (Heteranthera limosa); experiment: Test B flooded paddy test; details: Flood, 250 g ai/ha; 0 to 100 scale where 0 is no effect and 100 is complete control; 13 to 15 d
Procedure, shortened: as §1

[3] = test system: barnyardgrass (Echinochloa crus-galli); experiment: Test B flooded paddy test; details: Flood, 250 g ai/ha; 0 to 100 scale where 0 is no effect and 100 is complete control; 13 to 15 d
Procedure, shortened: as §1

[4] = test system: blackgrass (Alopecurus myosuroides); experiment: Test A postemergence; details: postemergence
Procedure, shortened: (§2)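 Compounds were formulated in a non-phytotoxic solvent mixture with surfactant and applied as a preemergence directed soil spray after seeding, or sprayed postemergence over plants 2 to 10 cm tall at the one- to two-leaf stage. Evaluation after about 10 d compared treated with untreated controls, using a scale from 0 (no effect) to 100 (complete control).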

[5] = test system: giant foxtail (Setaria faberii); experiment: Test A postemergence; details: postemergence
Procedure, shortened: as §2

[6] = test system: Galium (catchweed bedstraw, Galium aparine); experiment: Test A postemergence; details: postemergence
Procedure, shortened: as §2

[7] = test system: ragweed (common ragweed, Ambrosia elatior); experiment: Test A postemergence; details: postemergence
Procedure, shortened: as §2

[8] = test system: ryegrass, Italian (Italian ryegrass, Lolium multiflorum); experiment: Test A postemergence; details: postemergence
Procedure, shortened: as §2

Kochia (Kochia scoparia) [9] = experiment: Test A postemergence; details: postemergence
Procedure, shortened: as §2

corn (Zea mays) = experiment: Test A postemergence; details: postemergence
Procedure, shortened: as §2

[10] = test system: pigweed (Amaranthus retroflexus); experiment: Test A postemergence; details: postemergence
Procedure, shortened: as §2

[11] = test system: wheat (Triticum aestivum); experiment: Test A postemergence; details: postemergence
Procedure, shortened: as §2

[12] = test system: barnyardgrass (Echinochloa crus-galli); experiment: Test A postemergence; details: postemergence
Procedure, shortened: as §2

[13] = test system: giant foxtail (Setaria faberii); experiment: Test A preemergence
Procedure, shortened: as §2

[14] = test system: ragweed (common ragweed, Ambrosia elatior); experiment: Test A preemergence
Procedure, shortened: as §2

[15] = test system: ryegrass, Italian (Italian ryegrass, Lolium multiflorum); experiment: Test A preemergence
Procedure, shortened: as §2

Kochia (Kochia scoparia) [16] = experiment: Test A preemergence
Procedure, shortened: as §2

[17] = test system: pigweed (Amaranthus retroflexus); experiment: Test A preemergence
[18] = test system: barnyardgrass (Echinochloa crus-galli); experiment: Test A preemergence
Procedure, shortened: as §2

[19] = 125 g ai/ha, visual injury rating on 0 to 100 scale (0 no effect, 100 complete control), approx. 10 d
[20] = 500 g ai/ha, 0 to 100 scale, 0 no effect, 100 complete control
[21] = 125 g ai/ha, preemergence, 0 to 100 scale (0 no effect, 100 complete control)
[22] = Preemergence, 500 g ai/ha, visual injury approx. 10 d

CN1CC(c2ccc(C(F)(F)F)c(F)c2)C(C(=O)Nc2ccccc2F)C1=O (stereo not drawn) [Compound 399]
60: Plant response rating, Blackgrass [4, 20] | Plant response rating, Kochia (Kochia (Kochia scoparia) [9]; [20]) | Plant response rating, Wheat [11, 20] | Ryegrass, Italian plant response rating (0 to 100 scale, 0 is no effect, 100 is complete control) [15, 22]
0: Plant response rating, Sedge, Umbrella [1] | Plant response rating, Rice (rice (Oryra sativa)) | Ragweed plant response rating [7, 19] | Plant response rating, Ragweed [7, 20]
40: Blackgrass plant response rating [4, 19] | Ryegrass, Italian plant response rating [8, 19] | Plant response rating, Ryegrass, Italian [8, 20] | Plant response rating, Pigweed [10, 20] | Wheat plant response rating [11, 19]
20: Plant response rating, Ryegrass, Italian [15, 21]
50: Galium plant response rating [6, 19] | Plant response rating, Galium [6, 20] | Kochia plant response rating (Kochia (Kochia scoparia) [9]; [19]) | Corn plant response rating (corn (Zea mays); [19]) | Plant response rating, Ragweed [14, 21] | Ragweed plant response rating (0 to 100 scale, 0 is no effect, 100 is complete control) [14, 22]
90: Foxtail, Giant plant response rating [5, 19] | Plant response rating, Foxtail, Giant [5, 20] | Barnyardgrass plant response rating [12, 19] | Plant response rating, Barnyardgrass [12, 20] | Plant response rating, Foxtail, Giant [13, 21] | Foxtail, Giant plant response rating (0 to 100 scale, 0 is no effect, 100 is complete control) [13, 22] | Pigweed plant response rating (0 to 100 scale, 0 is no effect, 100 is complete control) [17, 22] | Plant response rating, Barnyardgrass [18, 21] | Barnyardgrass plant response rating (0 to 100 scale, 0 is no effect, 100 is complete control) [18, 22]
30: Pigweed plant response rating [10, 19]
65: Plant response rating, Barnyardgrass [3]
80: Plant response rating, Kochia (Kochia (Kochia scoparia) [16]; [21]) | Kochia plant response rating (0 to 100 scale, 0 is no effect, 100 is complete control) (Kochia (Kochia scoparia) [16]; [22])
100: Plant response rating, Ducksalad [2]
70: Plant response rating, Corn (corn (Zea mays); [20]) | Plant response rating, Pigweed [17, 21]
